Test results from publication PMC10515486, “Peptide Bispecifics Inhibiting HIV-1 Infection by an Orthogonal Chemical and Supramolecular Strategy” (Bioconjugate Chemistry, 2023).
Non-standard residues stand in square brackets, D forms with d. Residues, ends and D or L forms follow the SMILES beside them. No end group written: not given here. *: point of attachment. X1 = O=C(CCCC[C@@H]1SC[C@@H]2NC(=O)N[C@@H]21)NCCOCCOCCOCCOCCOCCOCCOCCOCCOCCOCCOCCNC(=O)CCN1C(=O)CC(*)C1=O

What was measured:
[1] = tested on: X4-tropic HIV-1; experiment: Replication kinetics in human PBMCs, X4-tropic HIV-1; assay type: cell-based; conditions: activated PBMCs from three human donors; 1 μM compound, AMD3100 1 μM, MVC 50 nM; supernatants titrated on TZM-bl cells
Description: (§1) (A) TZM-bl cells were pretreated with the indicated amounts of the single or multivalent compound and infected with X4- or R5-tropic HIV-1. Three days post-infection, a β-galactosidase assay was performed. […] (B) Human PBMCs were isolated, stimulated, and pretreated with 1 μM of the indicated single- or multivalent compound, Maraviroc (MVC/50 nM) or AMD3100 (1 μM). The cells were infected with X4- or R5-tropic HIV-1. Infectious virus yield was determined by infection of TZM-bl reporter cells with PBMC culture supernatants obtained at the indicated day post-infection (dpi). […]

[2] = tested on: R5-tropic HIV-1 NL4-3
Description: (§2) TZM-bl reporter cells were pretreated with increasing concentrations of the mono- and multivalent compounds and subsequently infected with the well-characterized X4-tropic HIV-1 NL4-3 molecular clone or an R5-tropic derivative thereof that differs in the V3 region of the viral envelope glycoprotein from the parental virus (Figure 5A).[39]
as §1
(§3) in supplemented RPMI-1640 and incubated with Human T-Activator CD3/CD28 […]
(§4) Virus stocks were generated by transient transfection of HEK293T cells using the calcium-phosphate precipitation method. One day before transfection, 0.8 x 10^6 HEK293T cells were seeded in 6 -well plates (Greiner Bio -one, Frickenhausen, Germany). At a confluence of 60-80% cells were used for transfection. For the […]

[3] = tested on: X4-tropic HIV-1 NL4-3; conditions: read-out: IC50 X4; TZM-bl cells pretreated, infected with X4-tropic HIV-1 NL4-3; β-galactosidase 3 days p.i.; molarity of biotin-conjugated peptide or of SAv construct (per construct); nonlinear regression
Description: as §2, §1, §3, §4

[4] = tested on: wild-type HIV-1 NL4-3; conditions: Figure 2B
Description: (B) Inhibition of wild-type HIV-1 NL4-3 by single-cysteine VIRIP derivatives.

[5] = tested on: R5-tropic HIV-1; experiment: Replication kinetics in human PBMCs, R5-tropic HIV-1; assay type: cell-based; conditions: activated PBMCs from three human donors; 1 μM compound, AMD3100 1 μM, MVC 50 nM; supernatants titrated on TZM-bl cells
Description: Figure 5 Antiviral activity of single- and multivalent VIR-102C9/EPI-X4 JM#173-C conjugates. Concentrations indicate the molarity of the tested biotin-conjugated peptides or of the SAv conjugates with four copies of mono- or bispecific peptides respectively. (A) TZM-bl cells were pretreated with the indicated amounts of the single or multivalent compound and infected with X4- or R5-tropic HIV-1. Three days post-infection, a β-galactosidase assay was performed. IC50 values are given in the SI (Table S2). (B) Human PBMCs were isolated, stimulated, and pretreated with 1 μM of the indicated single- or multivalent compound, Maraviroc (MVC/50 nM) or AMD3100 (1 μM). […] Infectious virus yield was determined by infection of TZM-bl reporter cells with PBMC culture supernatants obtained at the indicated day post-infection (dpi). […] They are assigned to (14) only because they sit in the plots with the purple curve, matched to the colour legend. / 14, IC50 (X4): small print, 0.026 could be 0.028 or 0.025 / 14, IC50 (R5): small print, 0.039 could be 0.038 or 0.089 / Substance label in the legend reads 'SAv-VIR-1029C-', but panel B prints 'SAv-VIR-102C9'. […]
Cell viability was determined by the Cell Titer-Glo 2.0 Cell Viability Assay according to the manufacturer’s instructions. […]
After 48 h, cell viability was assessed by measuring ATP levels in cells lysates with the commercially available Cell Titer-Glo kit. […]

[6] = tested on: HIV-1 NL4-3; experiment: TZM-bl infection with HIV-1 NL4-3 preincubated with carrier compounds; assay type: cell-based; conditions: virus preincubated with increasing amounts of carrier; β-galactosidase 3 days p.i.; three biological replicates
Description: To determine the infectivity of virions produced in infected human |PBMCs, TZM-bl cells were seeded in 96 -well plates at a density of 10,000 cells/well and infected after overnight incubation with the supernatants collected from the PBMC cultures. Three days p.i., viral infectivity was determined using a galactosidase screen kit from Tropix as recommended by the manufacturer. β-Galactosidase activities were quantified as relative light units (RLU) per second with an Orion Microplate luminometer (Berthold) . […]
infected with HIV-1 NL4-3 that was preincubated with increasing amounts of the carrier compounds Avidin, Neutravidin or Streptavidin. Three days post infection , a β-galactosidase assay was performed.
Each dot represents three biological replicates ± SEM.
(1 picture or pasted object on this page, not shown here)

Q: `c1cc(CN2CCCNCCNCCCNCC2)ccc1CN1CCCNCCNCCCNCC1` [AMD3100] was tested. Which “replication of X4-tropic HIV-1 in PBMCs (infectious virus yield)” value [1] did it give?
A: The value was “blocked”.

Q: `CC[C@H](C)[C@H](NC(=O)[C@H](CO)NC(=O)[C@H](CCSC)NC(=O)[C@@H]1CCCN1C(=O)[C@@H](NC(=O)[C@H](C)NC(=O)[C@H](CCC(=O)O)NC(=O)[C@@H](N)CC(C)C)[C@@H](C)CC)C(=O)N[C@@H](CSC1CC(=O)N(CCC(=O)NCCOCCOCCOCCOCCOCCOCCOCCOCCOCCOCCOCCNC(=O)CCCC[C@@H]2SC[C@@H]3NC(=O)N[C@@H]32)C1=O)C(=O)N1CCC[C@H]1C(=O)N[C@@H](CCC(=O)O)C(=O)N[C@H](C(=O)N[C@@H](Cc1ccccc1)C(=O)N[C@@H](Cc1ccccc1)C(=O)N[C@@H](CC(N)=O)C(=O)N[C@@H](CCCCN)C(=O)N1CCC[C@H]1C(=O)N[C@@H](Cc1ccccc1)C(=O)N[C@H](C(=O)N[C@@H](Cc1ccccc1)C(=O)O)C(C)C)C(C)C` (stereo partly shown) [compound 5] (H-LEAIPMSIC(X1)PEVFFNKPFVF-OH; N-terminus and C-terminus assumed) was tested. Which IC50 ([2]; read-out: IC50 R5, TZM-bl cells pretreated, infected with R5-tropic HIV-1 NL4-3 derivative, β-galactosidase 3 days p.i., molarity of biotin-conjugated peptide or of SAv construct (per construct)) did it give?
A: The IC50 was 1200 nM.

Q: And the IC50 [3]?
A: The IC50 was 1130 nM.

Q: For `CC[C@@H](C)[C@@H](N)C(=O)N[C@@H](CC(C)C)C(=O)N[C@@H](CCCNC(=N)N)C(=O)N[C@@H](Cc1c[nH]c2ccccc12)C(=O)N[C@@H](CO)C(=O)N[C@@H](CCCNC(=N)N)C(=O)N[C@@H](CCCCN)C(=O)N[C@@H](CSC1CC(=O)N(CCC(=O)NCCOCCOCCOCCOCCOCCOCCOCCOCCOCCOCCOCCNC(=O)CCCC[C@@H]2SC[C@@H]3NC(=O)N[C@@H]32)C1=O)C(N)=O` (stereo partly shown) [compound 6] (H-[dI]LRWSRKC(X1)-NH2; N-terminus and C-terminus assumed), which “activity against the R5-tropic derivative (in words)” value ([2]; TZM-bl cells) is on record?
A: Its value is “inactive”.

Q: With LEAIPMSICPEVFFNKPFVF [VIR-102C9] as the molecule, how does the IC50 [4] read?
A: Its IC50 is 200 nM.

Q: With Maraviroc as the molecule, how does the “replication of R5-tropic HIV-1 in PBMCs (infectious virus yield)” value [5] read?
A: The value was “prevented”.

Q: For “Streptavidin: tetrameric biotin-binding protein, carrier”, which “effect on HIV-1 infection efficiency” value [6] is on record?
A: Its value is “do not alter”.
